# Measurements taken from patent publication US9499553B2 (CHUGAI SEIYAKU KABUSHIKI KAISHA, priority 2013, dated 2016).
# Molecular target: T1, human NaPi-IIb (Homo sapiens, UniProt O95436)
# T1 construct: expressed in transfected cells
# T1 sequence (O95436 1-690): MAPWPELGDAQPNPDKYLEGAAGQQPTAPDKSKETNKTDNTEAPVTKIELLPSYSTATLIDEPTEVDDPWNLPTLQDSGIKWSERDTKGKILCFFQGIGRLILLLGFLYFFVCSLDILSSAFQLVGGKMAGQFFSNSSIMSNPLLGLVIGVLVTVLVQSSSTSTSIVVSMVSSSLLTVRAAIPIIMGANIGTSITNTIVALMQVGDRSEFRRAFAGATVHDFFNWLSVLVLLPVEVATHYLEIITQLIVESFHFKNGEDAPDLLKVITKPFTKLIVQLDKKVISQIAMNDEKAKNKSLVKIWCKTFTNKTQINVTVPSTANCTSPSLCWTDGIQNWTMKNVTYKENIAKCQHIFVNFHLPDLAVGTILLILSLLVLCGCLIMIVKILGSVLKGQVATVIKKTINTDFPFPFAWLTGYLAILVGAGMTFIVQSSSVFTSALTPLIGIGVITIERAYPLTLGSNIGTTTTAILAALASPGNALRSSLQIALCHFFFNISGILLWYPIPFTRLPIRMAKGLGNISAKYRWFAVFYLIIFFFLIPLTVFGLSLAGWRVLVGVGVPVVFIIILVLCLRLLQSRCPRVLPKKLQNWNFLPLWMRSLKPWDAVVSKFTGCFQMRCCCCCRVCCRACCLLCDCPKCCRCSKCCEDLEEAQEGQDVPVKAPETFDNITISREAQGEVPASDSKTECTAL
# Assay: Inhibitory effect on 33PO4 uptake into human NaPi-IIb-expressing CHO cells
# Type: cell-based
# Conditions: read-out: IC50
# Procedure: Test Example 2: Inhibitory Effect on PO4 Uptake into Human NaPi-IIb-Expressing Cell CHO cells were transfected with human NaPi-IIb expression plasmids, and a stably human NaPi-IIb-expressing cell line was obtained using G418. The human NaPi-IIb-expressing cells were inoculated to a 96-well plate and incubated overnight in a CO2 incubator. […] After a given time, a 1/20 volume of buffer A containing ^33PO4 was added thereto and reacted at room temperature. After washing with ice-cold buffer A, a liquid scintillator was added to each reaction mixture, and the amount of ^33PO4 uptake was measured using TopCount.
row,SMILES,IC50 [µM]
1,COC(=O)CN(C)CCOc1ccc(CN2C(=O)C(C(=O)Nc3ccc(C(F)(F)F)cc3-c3cc(C(F)(F)F)ncn3)=C(O)C3(CCC3)N2C)c(F)c1F [Example 346],6.9
2,CCN1[C@@H](C(C)(C)C)C(O)=C(C(=O)Nc2ccc(Cl)cc2-c2ccc(C(F)(F)F)nc2)C(=O)N1Cc1cccc(F)c1F [Example 245],7.7
3,CN1N(Cc2ccc(OCCN3C4CCC3COC4)c(F)c2F)C(=O)C(C(=O)Nc2ccc(C(F)(F)F)cc2-c2cc(C(F)(F)F)ncn2)=C(O)C12CCC2 [Example 340],10
4,CSc1ncc(-c2cc(C(F)(F)F)ccc2NC(=O)C2=C(O)[C@@]3(C)CCCN3N(Cc3ccc(OCCN4CCOCC4)c(F)c3F)C2=O)cn1 [Example 104],10.8
5,C[C@]12CCCN1N(Cc1c(F)cc(CCCCCCCOC[C@H](O)[C@@H](O)CO)cc1F)C(=O)C(C(=O)Nc1ccc(C(F)(F)F)cc1-c1ccc(C(F)(F)F)nc1)=C2O [Example 125],1.3
6,COc1ncc(-c2cc(C(F)(F)F)ccc2NC(=O)C2=C(O)[C@@]3(C)CCCN3N(Cc3cccc(F)c3F)C2=O)c(OC)n1 [Example 72],8.3
7,CN1[C@@H](C(C)(C)C)C(O)=C(C(=O)Nc2ccc(Br)c(C(F)(F)F)c2)C(=O)N1Cc1cccc(F)c1F [Example 243],7.4
8,COc1cccc(-c2cc(C(F)(F)F)ccc2NC(=O)C2=C(O)[C@@]3(C)CCCN3N(Cc3ccc(CCCOCCOCCOCCO)c(F)c3F)C2=O)c1OC [Example 142],17.6
9,"C[C@]12CCCN1N(Cc1ccc(OCCCCOC[C@H](O)CO)c(F)c1F)C(=O)C(C(=O)Nc1ccc(Cl)cc1-c1ccc(C(F)(F)F)nc1)=C2O [Example 121, (4aR)—N-[4-Chloro-2-[6-(trifluoromethyl)pyridin-3-yl]phenyl]-1-[[4-[4-[(2R)-2,3-dihydroxypropoxy]butoxy]-2,3-difluorophenyl]methyl]-4-hydroxy-4a-methyl-2-oxo-6,7-dihydro-5H-pyrrolo[1,2-b]pyridazine-3-carboxamide]",16

# Next, values leading:
row,IC50 [µM],SMILES
1,6.2,C[C@]12CCCN1N(Cc1c(F)cc(OCCCCCOC[C@@H](O)CO)cc1F)C(=O)C(C(=O)Nc1ccc(C(F)(F)F)cc1-c1ccc(C(F)(F)F)nc1)=C2O [Example 153]
2,17,Cc1c(C#N)ncnc1-c1cc(Cl)ccc1NC(=O)C1=C(O)[C@H](C(C)(C)C)N(C)N(Cc2ccc(OCCN3CCOCC3)c(F)c2F)C1=O [Example 274]
3,5.5,Cc1cccc(CN2C(=O)C(C(=O)Nc3ccc(C(F)(F)F)cc3-c3cc(C(F)(F)F)ncn3)=C(O)[C@@]3(C)CCCN23)c1 [Example 186]
4,7.9,C[C@]12CCCN1N(Cc1cccc(F)c1F)C(=O)C(C(=O)Nc1ccc(C(F)(F)F)cc1-c1cc(Cl)cnc1Cl)=C2O [Example 84]
5,9.1,COC(=O)c1cccc(CN2C(=O)C(C(=O)Nc3ccc(C(F)(F)F)cc3-c3cc(C(F)(F)F)ncn3)=C(O)[C@@]3(C)CCCN23)c1 [Example 183]
6,7.2,C[C@]12CCCN1N(Cc1ccccc1C#N)C(=O)C(C(=O)Nc1cc(F)c(Br)c(F)c1)=C2O [Example 218]
7,12.8,COc1cccc(-c2cc(C(F)(F)F)ccc2NC(=O)C2=C(O)[C@@]3(C)CCCN3N(Cc3ccc(OC4CCOCC4)c(F)c3F)C2=O)c1OC [Example 158]
8,8.5,CN1[C@@H](C(C)(C)C)C(O)=C(C(=O)Nc2ccc(Cl)cc2-c2ccc(C(F)(F)F)nc2)C(=O)N1Cc1cccc(F)c1F [Example 239]
9,7,Cc1c(-c2cc(C(F)(F)F)ccc2NC(=O)C2=C(O)C3(CCCC3)N(C)N(Cc3ccc(OCCN4CCOCC4)c(F)c3F)C2=O)ncnc1C(F)(F)F [Example 290]
10,18.3,"CN1N(Cc2ccc(OCCN3CCOCC3)c(F)c2F)C(=O)C(C(=O)Nc2ccc(C(F)(F)F)cc2-c2cc(C(F)(F)F)ncn2)=C(O)C1(C)C [Example 313, 2-[[2,3-Difluoro-4-(2-morpholin-4-ylethoxy)phenyl]methyl]-5-hydroxy-1,6,6-trimethyl-3-oxo-N-[4-(trifluoromethyl)-2-[6-(trifluoromethyl)pyrimidin-4-yl]phenyl]pyridazine-4-carboxamide]"
11,5.1,C[C@]12CCCN1N(Cc1cc(F)cc(F)c1)C(=O)C(C(=O)Nc1cc(F)c(Br)c(F)c1)=C2O [Example 190]
12,10.1,COc1c(C#N)ncnc1-c1cc(C(F)(F)F)ccc1NC(=O)C1=C(O)[C@@]2(C)CCCN2N(Cc2cccc(F)c2F)C1=O [Example 25]
13,17.6,CC(C)(C)[C@H]1C(O)=C(C(=O)Nc2cc(F)c(Br)c(F)c2)C(=O)N(Cc2cccc(F)c2F)N1CC(F)(F)F [Example 248]
14,8,CN1N(Cc2ccc(OCCN3CCOCC3)c(F)c2F)C(=O)C(C(=O)Nc2ccc(C(F)(F)F)cc2-c2ccc(C(F)(F)F)nc2)=C(O)C12CCCC2 [Example 287]
15,2.2,C[C@]12CCCN1N(Cc1cc(F)cc(F)c1)C(=O)C(C(=O)Nc1ccc(C(F)(F)F)cc1-c1ccc(C(F)(F)F)nc1)=C2O [Example 171]
16,17.6,COc1cccc(-c2cc(C(F)(F)F)ccc2NC(=O)C2=C(O)[C@@]3(C)CCCN3N(Cc3ccc(C#CCOCCOCCOCCO)c(F)c3F)C2=O)c1OC [Example 136]
17,6.5,CN1N(Cc2cccc(F)c2F)C(=O)C(C(=O)Nc2ccc(Cl)cc2-c2ccc(C(F)(F)F)nc2)=C(O)C1(C)C [Example 309]
18,16.8,Cc1c(Cl)ncnc1-c1cc(Cl)ccc1NC(=O)C1=C(O)[C@H](C(C)(C)C)N(C)N(Cc2ccc(OCCN3CCOCC3)c(F)c2F)C1=O [Example 275]
19,9.8,CN1N(Cc2ccc(C#CCN3CCOCC3)c(F)c2F)C(=O)C(C(=O)Nc2ccc(C(F)(F)F)cc2-c2cc(C(F)(F)F)ncn2)=C(O)C1(C)C [Example 315]
20,25.9,C[C@@]12CCCN1N(Cc1ccc(OCCN3CCOCC3)c(F)c1F)C(=O)C(C(=O)Nc1ccc(Cl)cc1-c1cc(C(F)(F)F)ncn1)=C2O [Example 107]
21,7.8,COc1cc(-c2cc(C(F)(F)F)ccc2NC(=O)C2=C(O)C(C)(C)N(C)N(Cc3cccc(F)c3F)C2=O)cnc1C#N [Example 302]

# Same assay, conditions: read-out: IC50 against 33PO4 uptake into human NaPi-IIb-expressing cells
row,IC50 [µM],SMILES
1,10.7,CN1N(Cc2ccc(OCCCCOC[C@H](O)CO)c(F)c2F)C(=O)C(C(=O)Nc2ccc(C(F)(F)F)cc2-c2ccc(C(F)(F)F)nc2)=C(O)C12CCCC2 [Example 387]
2,29,CN1N(Cc2ccc(OCCOCCOCCOCCC(=O)NCC(O)CO)c(F)c2F)C(=O)C(C(=O)Nc2ccc(C(F)(F)F)cc2-c2cc(C(F)(F)F)ncn2)=C(O)C12CCCC2 (stereo not drawn) [Example 424]
3,14.6,CC(CN1CCOCC1)Oc1ccc(CN2C(=O)C(C(=O)Nc3ccc(C(F)(F)F)cc3-c3cc(C(F)(F)F)ncn3)=C(O)C3(CCC3)N2C)c(F)c1F (stereo not drawn) [Example 408]
4,6.3,"CN1N(Cc2ccc(OC3COC3)c(F)c2F)C(=O)C(C(=O)Nc2ccc(C(F)(F)F)cc2-c2cc(C(F)(F)F)ncn2)=C(O)C12CCC2 [Example 403, 6-(2,3-Difluoro-4-(oxetan-3-yloxy)benzyl)-9-hydroxy-5-methyl-7-oxo-N-(4-(trifluoromethyl)-2-(6-(trifluoromethyl)pyrimidin-4-yl)phenyl)-5,6-diazaspiro[3.5]non-8-ene-8-carboxamide]"
5,15.8,CN1N(Cc2ccc(NCCN3CCOCC3)c(F)c2F)C(=O)C(C(=O)Nc2ccc(C(F)(F)F)cc2-c2cc(C(F)(F)F)ncn2)=C(O)C12CCCC2 [Example 447]
6,20,CN(C[C@H](O)[C@@H](O)[C@H](O)[C@H](O)CO)C(=O)CCOCCOCCOCCOc1ccc(CN2C(=O)C(C(=O)Nc3ccc(C(F)(F)F)cc3-c3cc(C(F)(F)F)ncn3)=C(O)C3(CCCC3)N2C)c(F)c1F [Example 423]
7,11,CN1N(Cc2ccc(OCCCCOC[C@H](O)CO)c(F)c2F)C(=O)C(C(=O)Nc2ccc(C(F)(F)F)cc2-c2ccc(C(F)(F)F)nc2)=C(O)C12CCC2 [Example 384]
8,6.3,COCCN(C)CCN(C)c1ccc(CN2C(=O)C(C(=O)Nc3ccc(C(F)(F)F)cc3-c3cc(C(F)(F)F)ncn3)=C(O)C3(CCCC3)N2C)c(F)c1F [Example 442]
9,7.7,"COCCN(C)CCOCCOc1ccc(CN2C(=O)C(C(=O)Nc3ccc(C(F)(F)F)cc3-c3cc(C(F)(F)F)ncn3)=C(O)C3(CCCC3)N2C)c(F)c1F [Example 429, 7-[[2,3-Difluoro-4-[2-[2-[2-methoxyethyl(methyl)amino]ethoxy]ethoxy]phenyl]methyl]-10-hydroxy-6-methyl-8-oxo-N-[4-(trifluoromethyl)-2-[6-(trifluoromethyl)pyrimidin-4-yl]phenyl]-6,7-diazaspiro[4.5]dec-9-ene-9-carboxamide]"
